Test results reported in US10660933B2, “Compositions and methods for inhibition of bacterial infections in human endocervix” (priority 2015, dated 2020).

Tests used:
cytoplasmic Ca2+ = experiment: Calcium imaging of Ng-inoculated polarized epithelial cells (FluoForte, Fluo-4); format: cell-based, human; conditions: MS11Opa+ and MS11ΔOpa-inoculated polarized epithelial cells, 4 h; 2APB 10 μM, BAPTA 50 μM
From the text: Ng inoculation induces Ca^2+-dependent redistribution of active NMII in polarized epithelial cells. A major upstream signaling molecule of MLCK is calmodulin that is activated by Ca^2+. To investigate if Ca^2+ is involved in Ng induced redistribution of active NMII, we determined if Ng inoculation would induce Ca^2+ flux in polarized epithelial cells. We used two Ca^2+ indicators, FluoForte (FIGS. 7A and 7B) and Fluo-4 (FIG. 11) to determine the cytoplasmic Ca^2+ level. Polarized T84 (FIGS. 7A and 7B, and FIG. 11A and FIG. 11B) and HEC-1-B (FIG. 11C and FIG. 11D) were incubated apically with MS11Opa+ or MS11ΔOpa for 4 h. The cells were then loaded with the fluorescent Ca^2+ indicator, and the cell membrane marked by the membrane dye CellMask. Cells were imaged using 3D-CFM (FIG. 7A, and FIGS. 11A and 11C). The mean fluorescence intensity (MFI) of the Ca^2+ dyes in individual cells was measured to estimate the cytoplasmic level of Ca^2+ (FIG. 7B, and FIGS. 11B and 11D). […]
Calcium imaging. […] To quantify the intracellular Ca^2+ level, the cytoplasmic region of individual cells was manually selected based on the CellMask staining in randomly acquired confocal images, and the mean fluorescent intensity (MFI) of Fluoforte and Fluo-4 in the cytoplasmic region was measured using the NIH ImageJ software.

polarized T84 cells = experiment: Fence function of the apical junction (CellMask) in polarized T84 cells; format: cell-based, human; conditions: polarized T84, Ng-inoculated; ML-7 10 μM, 2APB 10 μM
Method: Ng-induced junctional disassembly leads to a significant increase in the lateral diffusion between the apical and basolateral membrane but not in the permeability of epithelial monolayers. To determine whether Opa, MLCK and Ca^2+ flux are involved in this functional alteration of the apical junction, we stained the basolateral surface of polarized T84 epithelial cells exclusively with CellMask dye for […], after apical incubation with fluorescently labeled Ng for 6 h. The appearance of basolaterally stained CellMask dye in the apical membrane indicates a decrease in the fence function of the apical junction (FIG. 4D). […] The percentage of cells with basolaterally labeled CellMask reaching the apical surface increased to 19.4% when MS11Opa+ was inoculated and to 62.2% when MS11ΔOpa was inoculated (FIGS. 4E and 4F).
Fence functional of the apical junction. Polarized T84 cells were incubated with Ng apically for 6 h. Then the cells were incubated with the CellMask dye (5 μg/ml, Life Technologies) in the basolateral chamber only for 15 min, and xz images were acquired using Leica TCS SP5X confocal microscope (Leica Microsystems, Buffalo Grove, Ill.). The number of epithelial cells displaying CellMask staining at the apical membrane was countered visually as the percentage of the total number of epithelial cells in each randomly acquired image.

[1] = test system: Neisseria gonorrhoeae MS11ΔOpa; experiment: Ng subepithelial penetration in human endocervical tissue explants (3D-CFM); format: cell-based; conditions: MS11ΔOpa, 24 h; ML-7 10 μM or PIK 100 μM; 27% without inhibitor
Method: Human endocervical tissue explants. The tissue explants were cultured as previously described. Endocervical tissues were obtained from patients undergoing voluntary hysterectomies and received within 24 h post-surgery. Samples were cut into ˜2.5 cm (L)×0.6 cm (W)×0.3 cm (H) pieces, incubated in CMRL-1066 (GIBCO, Gaithersburg, Md.) plus antibiotics for 24 h, and then switched to antibiotic-free media for 24 h.
Immunofluorescence analysis of human endocervical tissue explants. Individual endocervical tissue pieces were incubated with Ng at a MOI of ˜10 (based on the average number of endocervical epithelial cells in endocervical tissue pieces) in the presence or absence of the MLCK inhibitor ML-7 (10 μM, EMD Millipore) and PIK (100 μM) (54) on transwells for 24 h. Unassociated Ng were removed by extensive washes at 6 and 12 h. The tissue was fixed, embedded in gelatin, cryopreserved, sectioned crossing the apical and basolateral surfaces of the epithelium, stained for ZO1 (BD Bioscience), pMLC (Cell Signaling Technology, Beverly, Mass.), and Ng (51) by specific antibodies, and nuclei by DAPI (Life Technologies, Carlsbad, Calif.), and analyzed using CFM (Zeiss LSM 710, Carl Zeiss Microscopy LLC, Oberkochen, Germany). […]
To quantify epithelial exfoliation, the number of Ng associated cells localized on the top of the epithelial monolayer (exfoliated) and the total number of Ng associated epithelial cells was counted by visual inspection in each randomly acquired image, to determine the percentage of exfoliated cells. To estimate the level of Ng penetration into the subepithelium, the number of non-exfoliated epithelial cells (in clearly visible epithelial monolayers) with basal Ng staining and the total number of Ng associated epithelial cells were visually counted to calculate the percentage of infected epithelial cells with Ng penetration into the basolateral side. […] To quantify the redistribution of pMLC, the fluorescence intensity ratios (FIR) of pMLC staining at the apical to lateral in individual epithelial cells were determined using average FI as previously described.

Row | SMILES | MFI of the Ca2+ indicators (cytoplasmic Ca2+ level) (cytoplasmic Ca2+) | percentage of epithelial cells with CellMask staining leaked to the apical surface (polarized T84 cells) | percentage of epithelial cells with basally associated Ng [1]
1 | NCCOB(c1ccccc1)c1ccccc1 [2APB] | back to the basal level | significantly lowered the percentage of epithelial cells with the CellMark staining leaked to the apical surface | 
2 | O=S(=O)(c1cccc2c(I)cccc12)N1CCCNCC1 [ML-7] |  | significantly lowered the percentage of epithelial cells with the CellMark staining leaked to the apical surface | 7.1%
